Results taken from PMC10818589 (2024).

Test system: d(5′-CGCGAATTCGCG-3′)2 (DNA, duplex) CGCGAATTCGCG
Test: ethidium bromide displacement, fluorescence quenching, double-log plot
Conditions: phosphate buffer 100 mM (cation not given); pH 7.0, 298 K; 20 μM duplex saturated with EtBr (5.07 μM), displaced; compound slowly decomposes in water; apparent

Kb: 3.162 × 10^5 ± 0.001 M^-1
Compound: [Ru+2].[Ru+2].[Ru+2].[Ru+2].[Ru+2].[Ru+2].[Ru+2].[Ru+2].[Ru+2].[Ru+2].[Ru+2].[Ru+2].c1cc2ccc1-c1ccc(cc1)-c1ccc(cc1)-c1ccc(cc1)-c1ccc(cc1)-c1ccc(cc1)-c1ccc(cc1)-c1ccc(cc1)-c1ccc(cc1)-c1ccc(cc1)-c1ccc(cc1)-c1ccc-2cc1.c1cc[cH-]c1.c1cc[cH-]c1.c1cc[cH-]c1.c1cc[cH-]c1.c1cc[cH-]c1.c1cc[cH-]c1.c1cc[cH-]c1.c1cc[cH-]c1.c1cc[cH-]c1.c1cc[cH-]c1.c1cc[cH-]c1.c1cc[cH-]c1
